Counter-ions that a name gives are not always drawn.
System: DLD-1 wild-type colorectal adenocarcinoma cells
Test: Cell viability assay (Cell Titer-Glo), DLD-1 wild-type
Format: cell-based
Settings: Homo sapiens, DLD-1, 168 h, 7 days, 50 cells/well
Text: In some embodiments, the biological assay measures the effects that compounds of the present disclosure may have on the viability of cells, e.g., the viability of cancer cells. In some embodiments, DLD-1 wild-type and DLD-1 BRCA2(−/−) colorectal adenocarcinoma cells, an isogenic pair of cell lines differing in the presence and absence, respectively, of both BRCA2 alleles, are used to measure the effect of the disclosed compounds on the viability of cancer cells.
In some embodiments, the cells are harvested during the logarithmic growth period, counted, and seeded at a specified count in the wells of a 96- or 384-well cell culture plate. In some embodiments, after seeding, the cells are incubated, e.g., at 37° C., 5% CO2 overnight. In some embodiments, the cells are treated with compounds, e.g., with serially diluted test compounds at 8-11 concentrations within a desired concentration range, e.g., from 1 nM-10 μM, for the generation of dose-response curves. In some embodiments, the plate is further incubated, e.g., for another 3-7 days in a humidified incubator at 37° C. and 5% CO2. In some embodiments, cell viability is assessed by luminescence measurement after addition of Cell Titer-Glo reagent (Promega, Madison, Wis.) according to the manufacturer's instructions. In some embodiments, cell viability IC50 values are calculated using XLFit, equation 201: y=A+((B−A)/(1+((x/C)^D))), where A=bottom, B=top, C=IC50, and D=slope. In some embodiments, the effects of the test compounds on the viability of other cell lines such as MDA-MB-436, MDA-MB-231, SUM149PT, HCC1395, and UWB1.289 are determined in an analogous method.
Compounds of the present disclosure were tested for their effects on the viability of cancer cells. DLD-1 wild-type and DLD-1 BRCA2(−/−) colorectal adenocarcinoma cells, an isogenic pair of cell lines differing in the presence and absence, respectively, of both BRCA2 alleles, were used. The cells were harvested during the logarithmic growth period, counted, and seeded at 50 cells/well for DLD-1 wild-type and 200 cells/well for DLD-1 BRCA2(−/−) in a 384-well cell culture plate. After seeding, cells were incubated at 37° C., 5% CO2 overnight. Cells were treated with serially diluted test compounds at 10 concentrations from 1.5 nM-30 μM) for generation of dose response curves. The plate was further incubated for another 7 days in a humidified incubator at 37° C. and 5% CO2. Cell viability was assessed by luminescence measurement after addition of Cell Titer-Glo reagent (Promega, Madison, Wis.) according to the manufacturer's instructions. Cell viability IC50 values were calculated using XLFit, equation 201: y=A+((B−A)/(1+((x/C)^D))), where A=bottom, B=top, C=IC50, and D=slope. IC50 values are shown in Table B and are presented in ranges, in which “+++”<300 nM, 300 nM≤“++”<3000 nM, and “+”≥3000 nM. Effects of the test compounds on the viability of other cell lines such as MDA-MB-436, MDA-MB-231, SUM149PT, HCC1395, and UWB1.289 are determined in an analogous method.

IC50 [nM] | SMILES
≥ 3000 | CCc1cc2ncc(CNC3CC(Nc4ccc(C(=O)NC)nc4)C3)cc2[nH]c1=O (stereo not shown) [Compound No. 29, 5-((3-(((7-ethyl-6-oxo-5,6-dihydro-1,5-naphthyridin-3-yl)methyl)amino)cyclobutyl)amino)-N-methylpicolinamide]
≥ 3000 | CCc1cc2ncc(CN3CC4(C3)CN(c3ccc(C(=O)NC)nc3)C4)cc2[nH]c1=O [Compound No. 9, 5-(6-((7-ethyl-6-oxo-5,6-dihydro-1,5-naphthyridin-3-yl)methyl)-2,6-diazaspiro[3.3]heptan-2-yl)-N-methylpicolinamide formate]
≥ 3000 | CCc1cc2ncc(CN3CCCN(c4ccc(C(=O)NC)nc4)CC3)cc2[nH]c1=O [Compound No. 6, 5-(4-((7-ethyl-6-oxo-5H-1,5-naphthyridin-3-yl)methyl)-1,4-diazepan-1-yl)-N-methylpyridine-2-carboxamide]

SMILES | IC50 [nM]
CCc1cc2ncc(CN3CC4CN(c5ccc(C(=O)NC)nc5)CC4C3)cc2[nH]c1=O (stereo not shown) [Compound No. 7, 5-(5-((7-ethyl-6-oxo-5,6-dihydro-1,5-naphthyridin-3-yl)methyl)hexahydropyrrolo[3,4-c]pyrrol-2(1H)-yl)-N-methylpicolinamide] | ≥ 3000

Source: US20240132522A1, “HETEROCYCLIC COMPOUNDS AND METHODS OF USE THEREOF” (1cBio, Inc., priority 2022, published 2024)
